Results reported in patent publication US12678488B2, “Batch management method for improving farrowing rate or number of piglets born alive in swine” (priority 2024, dated 2026).
Entries after “also recorded” stand apart in the source; their conditions may differ. Marks after values point to notes of the source that are not given here.

How the values were obtained:
[1] = tested on: Landrace x Large White reserve sows; experiment: B-Scan ultrasonic monitoring of follicles: ovulation time and ovarian cyst in gilts (Example 2); format: in vivo, pigs
Source text: Landrace x Large White reserve sows, about 230 days old, were randomly divided into a batch farrowing with FTAI and batch farrowing with FTAI combined with different doses of 1-[bis(4-cyanophenyl)methyl]-1,2,4-triazole groups, and during the experiment, the experimental sows in each group were fed regularly and gained free access to water according to the requirements of feeding management in the farm.
Referring to the dosage of 1-[bis(4-cyanophenyl)methyl]-1,2,4-triazole in clinical medicine and using standard weight-dosage conversion, the recommended dosage of 1-[bis(4-cyanophenyl)methyl]-1,2,4-triazole for sows was 50-150 μg/kg·BW/day, orally for consecutive 5 days, as derived by conversion. In addition, the applicant previously studied uniparous cows, and in the ovulation induction scheme, the reference dosage of 1-[bis(4-cyanophenyl)methyl]-1,2,4-triazole was 60-200 μg/kg·BW, administered in a single dose; furthermore, by means of conversion in conjunction with the dosage for model animals (mice) previously in the laboratory, various dosages were designed. The treatment methods of hormones and drugs for sows in each group were as follows: • batch farrowing with FTAI: the sows were fed with an altrenogest oral solution at 20 mg/animal at the same time every day, for 18 days; PMSG at 1000 IU/animal was injected intramuscularly 42 h after the last feeding with altrenogest, GnRH at 100 μg/animal was injected intramuscularly 80 h after the injection of PMSG, a first timed insemination was performed 24 h after the injection of GnRH, and a second timed insemination was performed 16 h after the first insemination.
(§1) Treatment group 1: the hormone treatment and mating schemes for gilts were the same as FTAI. The difference lay in that PMSG at 1000 IU/gilt was injected intramuscularly 42 h after the last feeding with altrenogest, and 1-[bis(4-cyanophenyl)methyl]-1,2,4-triazole at 12 μg/kg·BW/day was administered orally 8 h after the injection of PMSG, for 1 day.
as §1, with “2:” for “1:”, “2 days.” for “1 day.”
as §1, with “3:” for “1:”, “20” for “12”
as §1, with “4:” for “1:”, “sows” for “gilts”, “1-[bis (4-cyanophenyl)methyl]-1,2,4-triazole” for “1-[bis(4-cyanophenyl)methyl]-1,2,4-triazole”, “20” for “12”, “2 days.” for “1 day.”
as §1, with “5:” for “1:”, “IU/animal” for “IU/gilt”, “20” for “12”, “3 days.” for “1 day.”
as §1, with “6:” for “1:”, “IU/animal” for “IU/gilt”, “20” for “12”, “5 days.” for “1 day.”
Treatment group 7: the hormone treatment and mating schemes for gilts were the same as FTAI. […]

[2] = tested on: ENPP2, LPAR3 and PTGS2 mRNA (LPA signalling pathway) in the uterus; experiment: Quantitative PCR of key molecules in the LPA signalling pathway in gilt uteri (Example 4); format: in vivo, pigs; settings: gilts, 12 μg/kg·BW
Procedure: The gilts in the batch farrowing with FTAI and the gilts in the batch farrowing with FTAI supplementing once with 1-[bis(4-cyanophenyl)methyl]-1,2,4-triazole (12 μg/kg·BW) were slaughtered. The gilts were slaughtered 16 days after mating, with 4 gilts slaughtered per group. By judging the number of corpora lutea on the ovary, the number of ovulated oocytes (each corpus luteum represented an ovulation point) was confirmed.
Uteri were isolated from the gilts for RNA extraction, reverse transcription and quantitative PCR detection of several key molecules in the LPA signalling pathway, i.e., detection of ENPP2 (a gene for the expression of ATX, the key enzyme of LPA synthesis), LPAR3 (LPA receptor gene), and PTGS2 (a key gene downstream of LPAR).

[3] = 80 and 160 μg/kg·BW/day for 5 consecutive days (treatment groups 9 and 10)
[4] = Example 2 Treatment group 1: 12 μg/kg·BW/day orally, 1 day, gilts
[5] = Example 2 Treatment group 2: 12 μg/kg·BW/day orally, 2 days, gilts
[6] = Example 2 Treatment group 3: 20 μg/kg·BW/day orally, 1 day, gilts
[7] = Example 2 Treatment group 4: 20 μg/kg·BW/day orally, 2 days, gilts
[8] = Example 2 Treatment group 5: 20 μg/kg·BW/day orally, 3 days, gilts
[9] = Example 2 Treatment group 6: 20 μg/kg·BW/day orally, 5 days, gilts
[10] = Example 2 Treatment group 7: 40 μg/kg·BW/day orally, 1 day, gilts
[11] = Example 2 Treatment group 8: 40 μg/kg·BW/day orally, 5 days, gilts
[12] = Example 2 Treatment group 9: 80 μg/kg·BW/day orally, 5 days, gilts
[13] = Example 2 Treatment group 10: 160 μg/kg·BW/day orally, 5 days, gilts
[14] = gilts, with the increase of the dosage
[15] = low-dose, batch farrowing with FTAI

## N#Cc1ccc(C(c2ccc(C#N)cc2)n2cncn2)cc1 [1-[bis(4-cyanophenyl)methyl]-1,2,4-triazole]
[1]; [3]
  ovarian cyst: had a cyst problem
  ovulation for 10 days after stopping taking altrenogest: did not ovulate
[1]; [4]
  Cyst ratio (%): 0.00^b %
  Interval from stopping taking Altrenogest to ovulation (h): 170.13 ± 3.87^a h
  Number of animals with ovarian cyst: 0
  Number of animals with ovulation: 27
[1]; [5]
  Cyst ratio (%): 0.00^b %
  Interval from stopping taking Altrenogest to ovulation (h): 172.15 ± 3.34^a h
  Number of animals with ovarian cyst: 0
  Number of animals with ovulation: 23
[1]; [6]
  Cyst ratio (%): 0.00^b %
  Interval from stopping taking Altrenogest to ovulation (h): 169.57 ± 2.19^a h
  Number of animals with ovarian cyst: 0
  Number of animals with ovulation: 22
[1]; [7]
  Cyst ratio (%): 0.00^b %
  Interval from stopping taking Altrenogest to ovulation (h): 194.25 ± 2.96^b h
  Number of animals with ovarian cyst: 0
  Number of animals with ovulation: 21
[1]; [8]
  Cyst ratio (%): 11.53^c %
  Interval from stopping taking Altrenogest to ovulation (h): 177.79 ± 4.75^a h
  Number of animals with ovarian cyst: 3
  Number of animals with ovulation: 24
[1]; [9]
  Cyst ratio (%): 15.38^c %
  Interval from stopping taking Altrenogest to ovulation (h): 187.67 ± 3.69^b h
  Number of animals with ovarian cyst: 4
  Number of animals with ovulation: 20
[1]; [10]
  Cyst ratio (%): 11.53^c %
  Interval from stopping taking Altrenogest to ovulation (h): 191.50 ± 5.74^b h
  Number of animals with ovarian cyst: 3
  Number of animals with ovulation: 22
[1]; [11]
  Cyst ratio (%): 79.17^c %
  Interval from stopping taking Altrenogest to ovulation (h): 210.00 ± 2.65^b h
  Number of animals with ovarian cyst: 19
  Number of animals with ovulation: 4
[1]; [12]
  Cyst ratio (%): 100.00^c %
  Number of animals with ovarian cyst: 24
  Number of animals with ovulation: 0
[1]; [13]
  Cyst ratio (%): 100.00^c %
  Number of animals with ovarian cyst: 24
  Number of animals with ovulation: 0
[1]; gilts, treatment groups 1, 2, 3, and 5, compared with batch farrowing with FTAI
  ovulation time: no significant difference
[1]; [14]
  number of ovarian cysts: increased
  time from stopping taking altrenogest to ovulation: prolonged
[1]; high-dose
  ovarian cysts: caused ovarian cysts
  ovulation in sows: inhibited
[1]; [15]
  ovarian cyst: no ovarian cyst was caused
  ovulation time: no significant change
[1]; sows, high-dose 80 μg/kg·BW (FIG. 5)
  ovarian cyst, B-scan ultrasonic inspection: presented as cyst; also recorded: ovarian cyst is presented
[1]; sows, high-dose 80 μg/kg·BW (FIG. 5), day 10 after stopping altrenogest
  ovulation, B-scan ultrasonic inspection: no ovulation was observed
[1]; sows, low-dose 12 μg/kg·BW (FIG. 4)
  ovulation, B-scan ultrasonic inspection: ovulate normally
[2]; compared with batch farrowing with FTAI group
  Enpp2, Lpar3 and ptgs2 mRNA levels in the uteri: significantly higher
[2]; compared with natural estrus group
  Enpp2, Lpar3 and ptgs2 mRNA levels in the uteri: no significant difference
